According to patent US8841277B2, “Methods for treating non-small cell lung cancer using 5-azacytidine” (Celgene Corporation, priority 2009, dated 2014):
Entries after “also recorded” stand apart in the source; their conditions may differ. Like-named read-outs stand apart in the source and are kept apart here.

How the values were obtained:
Assay type in all cases: cell-based
H460 cells [1] = experiment: Cell cycle distribution (NIM-DAPI), H460
Text: (§1) These studies examined the cell cycle distribution of NSCLC cells treated with AZA or DAC using NIM-DAPI analysis.
(§2) For cell cycle distribution, cells were stained with the NIM-DAPI reagent (Beckman Coulter, Inc.; Fullerton, Calif.). For measurement of early- and late-apoptotic cell populations, cells were stained with AnnexinV-FITC and 7-AAD reagents (Beckman Coulter, Inc.). Samples were processed according to manufacturer's instructions and analyzed on a Cell Lab Quanta MPL flow cytometer (Beckman Coulter, Inc.). […] Data were also collected for untreated cells as control.

H1975 cells = experiment: Cell cycle distribution (NIM-DAPI), H1975; details: 72-hour treatment, 0.3-10 μM
Text: as §1, §2

H460 cells [2] = experiment: Western analysis of DNA damage and apoptosis markers, H460; details: for Induction of Histone H2AX phosphorylation / Induction of PARP cleavage: 0.3-10 μM; for Induction of Histone H2AX phosphorylation: 24 h, 48 h, up to 72 hour
Description: (§3) These studies also examined apoptosis using an assay for PARP cleavage. Cells studied included H460, A549, and H1299 cells.
(§4) For western analyses of protein levels, cells were washed with PBS and lysed with RIPA buffer (Cell Signaling Technology, Inc.; Danvers, Mass.) containing 350 mM NaCl and 0.1% SDS. Cell lysates were sonicated with two 5-second bursts under low amplitude (20%) using the Digital Sonic Dismembrator (Thermo Fisher Scientific, Inc.; Waltham, Mass.). Proteins were separated on 4-12% Bis-Tris NuPAGE gels (Life Technologies Corporation) and transferred to nitrocellulose membranes. DNMT1, phos-Histone-H2AX(Ser139), total Histone-H2AX, cleaved-PARP, p21, p53, and alpha-tubulin were detected using the Li-Cor Odyssey imaging system (Li-Cor Biotechnology; Lincoln, Nebr.), following incubation with the appropriate primary and secondary antibodies. The phos-Histone-H2AX(Ser139), cleaved-PARP, and p21 antibodies were from Cell Signaling Technology, Inc. The p53 and total Histone-H2AX (C-20) antibodies were from Santa Cruz Biotechnology, Inc. (Santa Cruz, Calif.). The alpha-tubulin and DNMT1 antibodies were purchased from EMD Chemicals, Inc. (Gibbstown, N.J.) and Abcam, Inc. (Cambridge, Mass.), respectively. The goat anti-Rabbit IRDye 680, goat anti-Mouse IRDye 800CW, and donkey anti-Goat IRDye 800CW secondary antibodies were from Li-Cor Biotechnology.

H460 cells [3] = experiment: Cell viability (CyQuant assay), H460; details: for HillSlope / LogIC50 / IC50: H460 viability, best-fit value
Description: (§5) Certain NSCLC cell lines (H460, H1299, A549, and H1975) were purchased from American Type Culture Collection (ATCC; Manassas, Va.). The H23NSCLC cell line was obtained from the National Cancer Institute (NCI; Bethesda, Md.). Cell lines were cultured in their respective media, as recommended by ATCC and NCI. AZA was manufactured at Aptuit (Greenwich, Conn.) for Celgene (Summit, N.J.), while DAC was purchased from Sigma-Aldrich (St. Louis, Mo.). In all experiments, cells were seeded 24 hours before drug treatment and incubated at 37° C./5% CO2, For cell viability assays, H460, H1299, A549, H23, and H1975 cells were seeded in triplicate at 1×10^3, 1×10^3, 1×10^3, 4×10^3, and 4×10^3 cells per well, respectively, in 96-well plates, using 200 μL of medium per well. Fresh drug was added every 24 hours by replacing medium with drug-containing medium. For all other assays, cells were seeded at 0.6-1.2×10^5 cells per well, in 6-well plates, using 4 mL of medium per well, with fresh drug added directly to the medium every 24 hours.
(§6) Cell viability was assessed using the CyQuant assay (Life Technologies Corporation; Carlsbad, Calif.). Fluorescence was measured with a spectrophotometer (Molecular Devices; Sunnyvale, Calif.), and EC50 values were calculated in Prism® version 5.01 (GraphPad Software, Inc.; La Jolla, Calif.), using results from three independent experiments.
(§7) The six data sets represent calculations of EC50 values from raw data using Prism®. The standard deviation among the three independent experiments was determined at each drug concentration. For some of the cell lines, Prism® was not able to calculate the EC50 for DAC. For those curves that an EC50 was available, the SE (Std. Error) was acceptable (SE of the logEC50 should be less than 0.5), meaning that the standard errors were not too large. The 95% Confidence Intervals for the EC50 were considered as a measure of error.

H1299 cells [4] = experiment: Western analysis of DNA damage and apoptosis markers, H1299
Description: as §3, §4

NSCLC cell lines = experiment: Cell viability dose-response profiles, all cell lines; details: 72 hours; dose range
Description: as §5, with “For all other assays, cells were seeded at 0.6-1.2×10^5 cells per well, in 6-well plates, using 4 mL of medium per well, with fresh drug added directly to the medium every 24 hours.” left out
as §6
The six data sets represent calculations of EC50 values from raw data using Prism®. The standard deviation among the three independent experiments was determined at each drug concentration. […]

[5] = tested on: LINE-1 elements in A549 cells; experiment: LINE-1 Methylation Assay, A549; details: for DNA hypomethylation (LINE-1 methylation): 48 hours or 72 hours
Description: Genomic DNA was purified from cells using the DNeasy Blood and Tissue Kit (Qiagen; Valencia, Calif.), according to the manufacturer's instructions. DNA yield was quantitated with a NanoDrop 8000 spectrophotometer (Thermo Fisher Scientific, Inc.). DNAs (1 μg/sample) were submitted to EpigenDx (Worcester, Mass.) for bisulfate conversion and pyrosequencing of LINE-1 elements. Briefly, 1 μg of DNA was bisulfite-treated using the Zymo DNA Methylation Kit (Zymo Research; Orange, Calif.) and eluted in 10 μL volume. DNA eluate (1 μL) was used for PCR with biotinylated primers to the LINE-1 locus, converting the PCR product to single-stranded DNA templates. PCR products (each 10 μL) were sequenced by Pyrosequencing PSQ96 HS System (Biotage AB), following the manufacturer's instructions (Biotage; Kungsgatan, Sweden). The methylation status of each locus was analyzed individually as a T/C SNP using QCpG software (Biotage). Percent LINE-1 methylation represents the average percent methylation of four CpG sites in duplicate samples.
At the highest drug concentration tested (3 μM), LINE-1 methylation was less affected, possibly due to reduced drug incorporation as a result of inhibited cell proliferation.

H1299 cells [6] = experiment: Cell viability (CyQuant assay), H1299; details: 72 hours; for HillSlope / LogIC50 / IC50: H1299 viability, best-fit value; for EC50 / IC50: Homo sapiens, NCI-H1299; for EC50: H1299, read-out: EC50 of effect on viability
Description: as §5, §6, §7

A549 cells = experiment: Cell viability (CyQuant assay), A549; details: 72 hours; for HillSlope / LogIC50 / IC50: A549 viability, best-fit value; for LogIC50: log(inhibitor) vs. normalized response -- Variable slope; for EC50 / IC50: Homo sapiens; for EC50: A549, read-out: EC50 of effect on viability
Description: as §5, §6, §7

[7] = Homo sapiens, NCI-H460, 72 hours
[8] = 0.3-10 μM, up to 3 days of treatment

SMILES	Cell cycle distribution (NIM DAPI) (H460 cells [1]; 30-hour treatment, 0.3-10 μM)	Cell cycle distribution (NIM DAPI) (H460 cells [1]; 60-hour treatment, 0.3-10 μM)	Cell cycle distribution (NIM DAPI) (H460 cells [1]; summary of studies)	Cell cycle distribution (NIM DAPI) (H1975 cells)	Induction of Histone H2AX phosphorylation (H460 cells [2])	Induction of PARP cleavage (H460 cells [2]; 24 h and 48 h)	HillSlope (H460 cells [3]; 72 hours)	LogIC50 (H460 cells [3]; 72 hours)	IC50 (H460 cells [3]; [7]) [µM]	Induction of Histone H2AX phosphorylation (H1299 cells [4]; [8])	Induction of PARP cleavage (H1299 cells [4]; [8])	Viability profile at high doses (NSCLC cell lines)	Concentration of peak hypomethylation (LINE-1) ([5]; 48 or 72 hours)	DNA hypomethylation (LINE-1 methylation) [5]	HillSlope (H1299 cells [6])	LogIC50 (H1299 cells [6])	EC50 (H1299 cells [6]) [µM]	IC50 (H1299 cells [6]) [µM]	HillSlope (A549 cells)	LogIC50 (A549 cells)	other results
Nc1ncn([C@@H]2O[C@H](CO)[C@@H](O)[C@H]2O)c(=O)n1 [AZA, 4-amino-1-β-D-ribofuranosyl-1,3,5-triazin-2(1H)-one]	induced accumulation of cells in Sub-G1	decrease of cells in G0/G1 with a concomitant increase of cells in Sub-01	induced accumulation of cells in Sub-G1	decrease of cells in G0/G1 and accumulation of cells in G2/M and Sub-G1	induced	induced	−0.8940	0.2413	1.74	induced	induced	cytotoxic activities at high doses	0.3-1 μM	induced DNA hypomethylation; also recorded: caused a decrease in LINE-1 methylation	−1.138	0.7095	5.1	5.12	−1.108	0.8033	Concentrations affecting Histone H2AX phosphorylation and PARP cleavage (H460 cells [2]): above 1 μM; EC50 (H460 cells [3]; H460, 72 hours, read-out: EC50 of effect on viability): 1.7 µM; EC50 (H460 cells [3]; Homo sapiens, NCI-H460, 72 h, H460, read-out: EC50 of effect on viability): 1.24 µM; Concentrations affecting Histone H2AX phosphorylation and PARP cleavage (H1299 cells [4]): above 3 μM; EC50 (A549 cells): 6.4 µM; IC50 (A549 cells): 6.36 µM
Nc1ncn([C@H]2C[C@H](O)[C@@H](CO)O2)c(=O)n1 [DAC, 5-aza-2′-deoxycytidine]	induced accumulation of cells in Sub-G1	slight increase in Sub-G1	induced accumulation of cells in Sub-G1	slight increases in G2/M and Sub-G1	did not have any effect	did not have any effect	−0.3814	2.053	113	did not have any effect	did not have any effect	cytostatic activity at high doses	0.1 μM	induced DNA hypomethylation; also recorded: caused a decrease in LINE-1 methylation	−0.4536	0.7153	5.2	5.19	−0.4617	1.556	p21 expression (H460 cells [2]; 24 h and 48 h, dose-dependent): induce; p53 expression (H460 cells [2]; 24 h and 48 h, dose-dependent): induce; EC50 (H460 cells [3]; Homo sapiens, NCI-H460, H460, 72 hours, read-out: EC50 of effect on viability): > 25 µM; Induction of Histone H2AX phosphorylation (H1299 cells [4]; 6 days of treatment): induced strong; Induction of PARP cleavage (H1299 cells [4]; 6 days of treatment): failed to induce significant; Potency in decreasing LINE-1 methylation relative to AZA ([5]; 48 or 72 hours): 3- to 10 fold; EC50 (A549 cells): > 25 µM; IC50 (A549 cells): 35.9 µM
